Literature values, collected in US20120064152A1, “Analgesic and Anti-Inflammatory Compositions Comprising Domperidone and Methods of Using Same” (THE BOOTS COMPANY, priority 1996, published 2012).
Where two headings read alike, the source gives them in different places.

Conditions: oral 100 mg sumatriptan

In the case of `CNS(=O)(=O)Cc1ccc2[nH]cc(CCN(C)C)c2c1` [sumatriptan], the “effectiveness compared with aspirin 900 mg plus 10 mg metoclopramide” value (initial attacks) is listed as “as effective as aspirin 900 mg plus 10 mg metoclopramide” and the “effectiveness compared with aspirin 900 mg plus 10 mg metoclopramide” value (subsequent attacks) is listed as “more effective”.
